Experimental data reported in patent US10961215B2, “N-aryl and N-heteroaryl piperidine derivatives as liver X receptor beta agonists, compositions, and their use” (Merck Sharp & Dohme Corp., priority 2016, dated 2021).

Columns and labels:
[1] = target: T1, GST tagged LXRbeta LBD (ligand binding domain) (Homo sapiens, UniProt P55055); experiment: LanthaScreen TR-FRET Liver X Receptor Coactivator Assay, LXR beta-LBD (co-activator recruitment; IP and % Emax relative to T0901317); format: biochemical; details: for EC50: Inflection Point of co-activator recruitment, LXR beta-LBD, TR-FRET; for Emax: read-out: LXR beta actiivty at max dose (%)
T1 construct: purchased Invitrogen pv4658.pps
T1 sequence (P55055 222-460 limits assumed): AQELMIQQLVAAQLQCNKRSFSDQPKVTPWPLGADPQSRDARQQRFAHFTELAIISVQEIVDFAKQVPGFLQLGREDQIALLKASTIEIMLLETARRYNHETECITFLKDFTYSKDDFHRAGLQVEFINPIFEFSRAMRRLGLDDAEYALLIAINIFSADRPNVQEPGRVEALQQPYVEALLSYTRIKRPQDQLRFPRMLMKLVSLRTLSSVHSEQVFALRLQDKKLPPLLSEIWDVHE
Method: (§1) Potency (Inflection Point, IP) and efficacy (Emax) are evaluated via compound-induced co-activator recruitment to glutathione-S-transferase (GST) tagged LXRbeta and LXRalpha LBD (ligand binding domain) proteins in relation to reference dual agonist compound T0901317 (N-(2,2,2-Trifluoroethyl)-N-[4-[2,2,2-trifluoro-1-hydroxy-1-(trifluoromethyl)ethyl]phenyl]benzenesulfonamide) using the LanthaScreen™ TR-FRET Liver X Receptor Coactivator Assays according to manufacturer's instructions (Invitrogen catalog number pv4658.pps and pv4655). While running the LanthaScreen™ TR-FRET Liver X Receptor Coactivator Assay, LXR alpha-LBD or LXR beta-LBD was added to ligand test compounds followed by addition of a mixture of a fluorescein-labelled coactivator peptide and terbium-conjugated anti-GST antibody. After an incubation period at room temperature, TR-FRET (time-resolved fluorescence resonance energy transfer) was measured using a filter-based instrument capable of TR-FRET, e.g. PerkinElmer Envision.

[2] = target: T2, GST tagged LXRalpha LBD (ligand binding domain) (Homo sapiens, UniProt Q13133); experiment: LanthaScreen TR-FRET Liver X Receptor Coactivator Assay, LXR alpha-LBD (co-activator recruitment; IP and % Emax relative to T0901317); format: biochemical; details: for LXR alpha IP (nM) / EC50: Inflection Point of co-activator recruitment, LXR alpha-LBD, TR-FRET; for Emax: read-out: LXR alpha actiivty at max dose (%)
T2 construct: purchased Invitrogen pv4655
T2 sequence (Q13133 209-447 limits assumed): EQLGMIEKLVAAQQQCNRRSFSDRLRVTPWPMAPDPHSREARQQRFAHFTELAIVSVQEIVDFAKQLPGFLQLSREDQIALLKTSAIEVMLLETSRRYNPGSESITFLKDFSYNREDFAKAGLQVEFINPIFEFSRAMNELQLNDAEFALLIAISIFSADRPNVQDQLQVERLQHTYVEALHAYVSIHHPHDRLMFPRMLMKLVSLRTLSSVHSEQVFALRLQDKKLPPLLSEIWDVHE
Method: as §1

[3] = efficacy at max dose in relation to reference T0901317, LXR beta-LBD
[4] = efficacy at max dose in relation to reference T0901317, LXR alpha-LBD

| EC50 [1] [nM] | Emax [1, 3] [%] | LXR alpha IP (nM) [2] | Emax [2, 4] [%] | EC50 [2] [nM] | LXR beta actiivty at max dose (%) [1, 3] [%] | LXR alpha actiivty at max dose (%) [2, 4] [%] | Structure (SMILES) |
| --- | --- | --- | --- | --- | --- | --- | --- |
| 727 | 42 | No IP | 0 | – | – | – | COc1cccc([C@@](O)(C(=O)N(C)C2CC(CC3CCN(c4ccc(C(=O)N(C)C)c(C)n4)CC3)C2)C(F)(F)F)c1 (single isomer, unassigned) [Example 11-1] |
| 11 | 62 | – | 40 | 95 | – | – | COc1cccc([C@@](O)(C(=O)N(C)CCCC2CCN(c3ccc(C(=O)N(C)Cc4noc(C5CC5)n4)c(Cl)n3)CC2)C(F)(F)F)c1 [Example 2-12, (R)-2-chloro-N-((5-cyclopropyl-1,2,4-oxadiazol-3-yl)methyl)-N-methyl-6-(4-(3-(3,3,3-trifluoro-2-hydroxy-2-(3-methoxyphenyl)-N-methylpropanamido)propyl)piperidin-1-yl)nicotinamide] |
| 272 | 49 | No IP | 0 | – | – | – | COc1cccc([C@@](O)(C(=O)N(C)CCCC2CCN(c3ccc(C(=O)N4CCC4)c(Cl)n3)CC2)C(F)(F)F)c1 [Example 2-15, (R)-N-(3-(1-(5-(azetidine-1-carbonyl)-6-chloropyridin-2-yl)piperidin-4-yl)propyl)-3,3,3-trifluoro-2-hydroxy-2-(3-methoxyphenyl)-N-methylpropanamide] |
| 546 | 55 | – | 23 | 5530 | – | – | CN(C)C(=O)c1ccc(N2CCC(CCCN(C)C(=O)[C@](O)(c3cccc(OC(F)F)c3)C(F)(F)F)CC2)nc1Cl [Example 1-51, (R)-2-chloro-6-(4-(3-(2-(3-(difluoromethoxy)phenyl)-3,3,3-trifluoro-2-hydroxy-N-methyl-propanamido)propyl)piperidin-1-yl)-N,N-dimethylnicotinamide] |
| 25 | 70 | No IP | 16 | – | – | – | COc1cccc([C@@](O)(C(=O)N(C)C[C@H](C)CC2CCN(c3ccc(C(=O)N(C)C)c(Cl)n3)CC2)C(F)(F)F)c1 (single isomer, unassigned) [Example 3-1] |
| 187 | 54 | No IP | 9 | – | – | – | CN(C)C(=O)c1ccc(N2CCC(CCCNC(=O)[C@](O)(c3cc(Cl)cc(Cl)c3)C(F)(F)F)CC2)nc1Cl [Example 5-13, (R)-2-chloro-6-(4-(3-(2-(3,5-dichlorophenyl)-3,3,3-trifluoro-2-hydroxypropanamido)propyl)piperidin-1-yl)-N,N-dimethylnicotinamide] |
| 14 | 94 | – | 31 | 198 | – | – | CN(C)C(=O)c1ccc(N2CCC(C)(CCCN(C)C(=O)[C@]3(c4ccccc4)CCCO3)CC2)nc1Cl [Example 9-3, (R)-2-chloro-N,N-dimethyl-6-(4-methyl-4-(3-(N-methyl-2-phenyltetrahydrofuran-2-carboxamido)propyl)piperidin-1-yl)nicotinamide] |
| 218 | 25 | No IP | 4 | – | – | – | COc1cccc([C@@](O)(C(=O)N(C)CCCC2(F)CCN(c3ccc(C(=O)N(C)C)c(Cl)c3)CC2)C(F)(F)F)c1 [Example 12-2, (R)-2-chloro-4-(4-fluoro-4-(3-(3,3,3-trifluoro-2-hydroxy-2-(3-methoxyphenyl)-N-methylpropanamido)propyl)piperidin-1-yl)-N,N-dimethylbenzamide] |
| 22 | 64 | – | 42 | 504 | – | – | CNC(=O)c1ccc(N2CCC3(CC2)C[C@H]3CCN(C)C(=O)[C@](O)(c2ccccc2)C(F)(F)F)cc1Cl (single isomer, unassigned) [Example 7-7] |
| 453 | 59 | No IP | 0 | – | – | – | CN(C)C(=O)c1ccc(N2CCC(CCCN(C)C(=O)[C@@](O)(c3cc(F)cc(Cl)c3)C(F)(F)F)CC2)nc1Cl [Example 1-11, (S)-2-chloro-6-(4-(3-(2-(3-chloro-5-fluorophenyl)-3,3,3-trifluoro-2-hydroxy-N-methylpropanamido)propyl)piperidin-1-yl)-N,N-dimethylnicotinamide] |
| 136 | 44 | No IP | 0 | – | – | – | CN(C)C(=O)c1ccc(N2CCC3(CC2)CC3CCCN(C)C(=O)[C@](O)(c2ccccc2)C(F)(F)F)cc1Cl (stereo partly drawn) [Example 7-33, 2-chloro-N,N-dimethyl-4-(1-(3-((R)-3,3,3-trifluoro-2-hydroxy-N-methyl-2-phenylpropanamido)propyl)-6-azaspiro[2.5]octan-6-yl)benzamide] |
| 686 | 80 | No IP | 11 | – | – | – | CC(C)C(O)(C(=O)NCCCC1CCN(c2ccc(C(=O)N(C)C)c(Cl)c2)CC1)C(F)(F)F (stereo not drawn) [Example 5-2, 2-chloro-4-(4-(3-(2-hydroxy-3-methyl-2-(trifluoromethyl)butanamido)propyl)piperidin-1-yl)-N,N-dimethyl-benzamide] |
| 1870 | 32 | No IP | 5 | – | – | – | COc1cccc([C@@](O)(C(=O)N(C)CC[C@@H]2CC23CCN(c2ccc(C(=O)NC4CC4)c(Cl)c2)CC3)C(F)(F)F)c1 [Example 7-27, 2-chloro-N-cyclopropyl-4-((S)-1-(2-((R)-3,3,3-trifluoro-2-hydroxy-2-(3-methoxyphenyl)-N-methylpropanamido)ethyl)-6-azaspiro[2.5]octan-6-yl)benzamide] |
| 18 | 55 | No IP | 6 | – | – | – | COc1cccc([C@@](O)(C(=O)N(C)CC[C@H]2CC23CCN(c2ccc(C(=O)N(C)C(C)C)c(Cl)c2)CC3)C(F)(F)F)c1 [Example 7-14, 2-chloro-N-isopropyl-N-methyl-4-((R)-1-(2-((R)-3,3,3-trifluoro-2-hydroxy-2-(3-methoxyphenyl)-N-methylpropanamido)ethyl)-6-azaspiro[2.5]octan-6-yl)benzamide] |
| 403 | 65 | No IP | 12 | – | – | – | CN(C)C(=O)c1ccc(N2CCC([C@@H]3C[C@H]3CN(C)C(=O)[C@@](O)(c3ccccc3)C(F)(F)F)CC2)cc1Cl [Example 15-20, 2-chloro-N,N-dimethyl-4-(4-((1S,2R)-2-(((S)-3,3,3-trifluoro-2-hydroxy-N-methyl-2-phenylpropanamido)methyl)cyclopropyl)piperidin-1-yl)benzamide] |
| 11 | 68 | – | 55 | 381 | – | – | CN(C)C(=O)c1ccc(N2CCC3(CC2)C[C@@H]3CCN(C)C(=O)[C@](O)(c2ccccc2)C(F)(F)F)cc1Cl [Example 7-5, 2-chloro-N,N-dimethyl-4-((R)-1-(2-((R)-3,3,3-trifluoro-2-hydroxy-N-methyl-2-phenylpropanamido)ethyl)-6-azaspiro[2.5]octan-6-yl)benzamide] |
| 131 | 56 | No IP | 12 | – | – | – | CN(C)C(=O)c1ccc(N2CCC(C[C@H]3C[C@H]3CN(C)C(=O)[C@](O)(c3ccccc3)C(F)(F)F)CC2)nc1Cl [Example 18-1, 2-chloro-N,N-dimethyl-6-(4-(((1S,2R)-2-(((R)-3,3,3-trifluoro-2-hydroxy-N-methyl-2-phenylpropanamido)methyl)cyclopropyl)methyl)piperidin-1-yl)nicotinamide] |
| – | – | – | – | 752 | 78 | 27 | CN(C)C(=O)c1ccc(N2CCC(CCCN(C)C(=O)[C@](O)(c3ccccc3)C(F)(F)F)CC2)nc1Cl [Example 1-1, (R)-2-chloro-N,N-dimethyl-6-(4-(3-(3,3,3-trifluoro-2-hydroxy-N-methyl-2-phenylpropanamido)propyl)piperidin-1-yl)nicotinamide] |
| 686 | 51 | No IP | 18 | – | – | – | COc1cccc([C@@](O)(C(=O)N(C)CCCC2CCN(c3ccc(C(=O)NC(C)C)c(Cl)n3)CC2)C(F)(F)F)c1 [Example 2-1, (R)-2-chloro-N-isopropyl-6-(4-(3-(3,3,3-trifluoro-2-hydroxy-2-(3-methoxyphenyl)-N-methylpropanamido)propyl)piperidin-1-yl)nicotinamide] |
